Experimental data from patent US5563155A, “Individual stereosiomers of 7-[3-(aminoalkyl)-1-pyrrolidinyl]-quinolones and naphthyridones as antibacterial agents” (Warner-Lambert Company, priority 1995, dated 1996).
≈ marks a conversion by molar mass, not a printed value. Where a name gives a salt, the structure may show the parent alone. Read-outs that look alike come from different tables or passages of the source.

Key:
Ent. cloacae MA2646 = experiment: in vitro antibacterial activity, microtitration dilution (MIC), Ent. cloacae MA2646; format: cell-based; conditions: Enterobacter cloacae, read-out: minimum inhibiting concentration (MIC)
Description: (§1) The in vitro antibacterial activity, is obtained by the microtitration dilution method as described in Heifetz, et al., Antimicr. Agents & Chemother., 6, 124 (1974), which is incorporated herein by reference.
(§2) By use of the above methods, the following minimum inhibiting concentration values (MICs in μg/mL), PD50 's in mg/kg, no effect phototoxicity dose in mg/kg and the cytotoxicity IC50 in μg/mL were obtained for representative enantiomers of the invention and compounds of the prior art as shown in the table.

Klebs. pneumoniae MGH-2 = experiment: in vitro antibacterial activity, microtitration dilution (MIC), Klebs. pneumoniae MGH-2; format: cell-based; conditions: Klebsiella pneumoniae, MGH2, read-out: minimum inhibiting concentration (MIC)
Description: as §1, §2

Strep. pheumoniae SV-1 = experiment: in vitro antibacterial activity, microtitration dilution (MIC), Strep. pneumoniae SV-1; format: cell-based; conditions: Streptococcus pneumoniae, SV1, read-out: minimum inhibiting concentration (MIC)
Description: as §1, §2

Pseud. aeruginosa UI-18 = experiment: in vitro antibacterial activity, microtitration dilution (MIC), Pseud. aeruginosa UI-18; format: cell-based; conditions: Pseudomonas aeruginosa, UI18, read-out: minimum inhibiting concentration (MIC)
Description: as §1, §2

Staph. aureus H 228 = experiment: in vitro antibacterial activity, microtitration dilution (MIC), Staph. aureus H 228; format: cell-based; conditions: Staphylococcus aureus, H228, read-out: minimum inhibiting concentration (MIC)
Description: as §1, §2

Strep. faecalis MGH-2 = experiment: in vitro antibacterial activity, microtitration dilution (MIC), Strep. faecalis MGH-2; format: cell-based; conditions: Enterococcus faecalis, MGH2, read-out: minimum inhibiting concentration (MIC)
Description: as §1, §2

Esch. coli Vogel [1] = experiment: in vitro antibacterial activity, microtitration dilution (MIC), Esch. coli Vogel; format: cell-based; conditions: Escherichia coli, read-out: minimum inhibiting concentration (MIC)
Description: as §1, §2

Strep. pyogenes C-203 [2] = experiment: in vitro antibacterial activity, microtitration dilution (MIC), Strep. pyogenes C-203; format: cell-based; conditions: Streptococcus pyogenes, C203, read-out: minimum inhibiting concentration (MIC)
Description: as §1, §2

Staph. aureus UC-76 = experiment: in vitro antibacterial activity, microtitration dilution (MIC), Staph. aureus UC-76; format: cell-based; conditions: Staphylococcus aureus, UC76, read-out: minimum inhibiting concentration (MIC)
Description: as §1, §2

Prot. rettgeri M 1771 = experiment: in vitro antibacterial activity, microtitration dilution (MIC), Prot. rettgeri M 1771; format: cell-based; conditions: Providencia rettgeri, M1771, read-out: minimum inhibiting concentration (MIC)
Description: as §1, §2

Strep. pyogenes C-203 [3] = experiment: median protective dose in mice given lethal systemic infections, Strep. pyogenes C-203; format: in vivo; conditions: Streptococcus pyogenes, single dose at time of challenge, read-out: median protective dose (PD50)
Description: (§3) The in vivo activity is obtained when the compounds are tested according to the procedure of Miller, et al (Proc. Soc. Exp. Biol. Med. 57, 261, 1944). The median protective dose (PD50) was determined in mice given lethal systemic infections. Single doses of compound were given at time of challenge.
as §2
(§4) The in vivo data as PD50 s are reported below the line of MICs for the same compound.

Esch. coli Vogel [4] = experiment: median protective dose in mice given lethal systemic infections, Esch. coli Vogel; format: in vivo; conditions: Escherichia coli, single dose at time of challenge, read-out: median protective dose (PD50)
Description: as §3, §2, §4

[5] = cytotoxicity, hamster V-79 cells, colony reduction; format: cell-based; conditions: 3 hours treatment, colonies counted after 5 days, read-out: Cytotox (cytotoxicity IC50)
Description: The cytotoxicity data is obtained using hamster V-79 cells. The cells were suspended in tissue culture medium and grown overnight. Cells were treated with drug for 3 hours, washed free of drug and then replated, and the colonies counted after 5 days. The concentration of drug that reduced colones by 50% relative to control was recorded.
as §2

Row | Compound | MIC (Ent. cloacae MA2646) | MIC (Klebs. pneumoniae MGH-2) | MIC (Strep. pheumoniae SV-1) | MIC (Pseud. aeruginosa UI-18) | MIC (Staph. aureus H 228) | MIC (Strep. faecalis MGH-2) | MIC (Esch. coli Vogel [1]) | MIC (Strep. pyogenes C-203 [2]) | MIC (Staph. aureus UC-76) | MIC (Prot. rettgeri M 1771) | ED50 (Strep. pyogenes C-203 [3]; C203, PO) | ED50 (Strep. pyogenes C-203 [3]; C203, SC) | ED50 (Esch. coli Vogel [4]; PO) | ED50 (Esch. coli Vogel [4]; SC) | CC50 at 3 h [5]
1 | C[C@@H](N)[C@@H]1CCN(c2nc3c(cc2F)c(=O)c(C(=O)O)cn3-c2ccc(F)cc2F)C1 [Example 48, 3R,1R-7-[3-(1-aminoethyl)-1-pyrrolidinyl]-1-(2,4-difluorophenyl)-6-fluoro-1,4-dihydro-1,8-naphthyridine-3-carboxylic acid] | 0.1 µg/mL (≈ 0.231 µM) | 0.2 µg/mL (≈ 0.463 µM) | 0.05 µg/mL (≈ 0.116 µM) | 1.6 µg/mL (≈ 3.7 µM) | 0.1 µg/mL (≈ 0.231 µM) | 0.1 µg/mL (≈ 0.231 µM) | 0.1 µg/mL (≈ 0.231 µM) | 0.05 µg/mL (≈ 0.116 µM) | 0.025 µg/mL (≈ 0.0578 µM) | 0.4 µg/mL (≈ 0.925 µM) | 9 mg/kg | 3 mg/kg |  |  | 
2 | CCN[C@H](C)[C@H]1CCN(c2nc3c(cc2F)c(=O)c(C(=O)O)cn3C2CC2)C1 [Example 79, 3S,1R-1-cyclopropyl-7-[3-[1-(ethylamino)ethyl]-1-pyrrolidinyl]-6-fluoro-1,4-dihydro-4-oxo-1,8-naphthyridine-3-carboxylic acid] | 0.1 µg/mL (≈ 0.257 µM) | 0.2 µg/mL (≈ 0.515 µM) | 0.025 µg/mL (≈ 0.0644 µM) | 1.6 µg/mL (≈ 4.12 µM) | 0.1 µg/mL (≈ 0.257 µM) | 0.05 µg/mL (≈ 0.129 µM) | 0.1 µg/mL (≈ 0.257 µM) | 0.05 µg/mL (≈ 0.129 µM) | 0.025 µg/mL (≈ 0.0644 µM) | 0.8 µg/mL (≈ 2.06 µM) | 2 mg/kg | 2 mg/kg | 2 mg/kg | 1 mg/kg | 
3 | CN[C@@H](C)[C@@H]1CCN(c2nc3c(cc2F)c(=O)c(C(=O)O)cn3-c2ccc(F)cc2F)C1 [Example 64, 3R,1S-1-(2,4-difluorophenyl)-6-fluoro-1,4-dihydro-7-[3-[1-(methylamino)ethyl]-1-pyrrolidinyl]-4-oxo-1,8-naphthyridine-3-carboxylic acid, monohydrochloride] | 0.8 µg/mL | 0.8 µg/mL | 0.025 µg/mL | 3.1 µg/mL | 0.1 µg/mL | 0.2 µg/mL | 0.4 µg/mL | 0.05 µg/mL | 0.025 µg/mL | 1.6 µg/mL | 4 mg/kg | 2 mg/kg | 5 mg/kg | 2 mg/kg | 310 µg/mL
4 | CCOc1c(N2CC[C@@H]([C@H](C)NC)C2)c(F)cc2c(=O)c(C(=O)O)cn(C3CC3)c12 [Example 57, 3R,1S-1-cyclopropyl-8-ethoxy-6-fluoro-1,4-dihydro-7-[3-(1-N-methylaminoethyl)-1-pyrrolidinyl]-4-oxo-3-quinolinecarboxylic acid] | 0.4 µg/mL (≈ 0.958 µM) | 0.4 µg/mL (≈ 0.958 µM) | 0.025 µg/mL (≈ 0.0599 µM) | 3.1 µg/mL (≈ 7.43 µM) | 0.025 µg/mL (≈ 0.0599 µM) | 0.05 µg/mL (≈ 0.12 µM) | 0.4 µg/mL (≈ 0.958 µM) | 0.025 µg/mL (≈ 0.0599 µM) | 0.013 µg/mL (≈ 0.0311 µM) | 0.8 µg/mL (≈ 1.92 µM) |  |  |  |  | 220 µg/mL (≈ 527 µM)
5 | CCN[C@@H](C)[C@@H]1CCN(c2c(F)c(N)c3c(=O)c(C(=O)O)cn(C4CC4)c3c2F)C1 [Example 53, 3R,1S-5-amino-1-cyclopropyl-7-[3-(1-N-ethylaminoethyl)-1-pyrrolidinyl]-6,8-difluoro-1,4-dihydro-4-oxo-3-quinolinecarboxylic acid] | 0.025 µg/mL (≈ 0.0595 µM) | 0.05 µg/mL (≈ 0.119 µM) | ≤ 0.003 µg/mL | 0.8 µg/mL (≈ 1.9 µM) | ≤ 0.003 µg/mL | 0.013 µg/mL (≈ 0.0309 µM) | 0.025 µg/mL (≈ 0.0595 µM) | ≤ 0.003 µg/mL | ≤ 0.003 µg/mL | 0.1 µg/mL (≈ 0.238 µM) | 0.3 mg/kg | 0.3 mg/kg | 1.6 mg/kg | 0.8 mg/kg | 
6 | CCN[C@@H](C)[C@@H]1CCN(c2nc3c(cc2F)c(=O)c(C(=O)O)cn3C2CC2)C1 [Example 78, 3R,1S-1-cyclopropyl-7-[3-[1-(ethylamino)ethyl]-1-pyrrolidinyl]-6-fluoro-1,4-dihydro-4-oxo-1,8-naphthyridine-3-carboxylic acid] | 0.4 µg/mL (≈ 1.03 µM) | 0.2 µg/mL (≈ 0.515 µM) | 0.025 µg/mL (≈ 0.0644 µM) | 1.6 µg/mL (≈ 4.12 µM) | 0.05 µg/mL (≈ 0.129 µM) | 0.05 µg/mL (≈ 0.129 µM) | 0.1 µg/mL (≈ 0.257 µM) | 0.05 µg/mL (≈ 0.129 µM) | 0.025 µg/mL (≈ 0.0644 µM) | 1.6 µg/mL (≈ 4.12 µM) | 6 mg/kg | 4 mg/kg |  |  | 
7 | Cc1c(F)c(N2CC[C@@H]([C@H](C)N)C2)cc2c1c(=O)c(C(=O)O)cn2-c1ccc(F)cc1F [Example 65, 3R,1S-7-[3-(1-aminoethyl)-1-pyrrolidinyl]-1-(2,4-difluorophenyl)-6-fluoro-1,4-dihydro-5-methyl-4-oxo-3-quinolinecarboxylic acid, monohydrochloride] | 0.1 µg/mL | 0.2 µg/mL | 0.003 µg/mL | 0.8 µg/mL | 0.013 µg/mL | 0.025 µg/mL | 0.1 µg/mL | 0.003 µg/mL | 0.006 µg/mL | 0.4 µg/mL | 5 mg/kg | 0.6 mg/kg |  |  | 10 µg/mL
8 | CN[C@H](C)[C@H]1CCN(c2c(F)cc3c(=O)c(C(=O)O)cn(C4CC4)c3c2OC)C1 [Example 38, 3S,1R-1-cyclopropyl-6-fluoro-7-[3-(1-N-methylaminoethyl)-1-pyrrolidinyl]-8-methoxy-1,4-dihydro-4-oxo-3-quinolinecarboxy acid] | 0.2 µg/mL (≈ 0.496 µM) | 0.4 µg/mL (≈ 0.991 µM) | 0.025 µg/mL (≈ 0.062 µM) | 3.1 µg/mL (≈ 7.68 µM) | 0.05 µg/mL (≈ 0.124 µM) | 0.05 µg/mL (≈ 0.124 µM) | 0.2 µg/mL (≈ 0.496 µM) | 0.025 µg/mL (≈ 0.062 µM) | 0.013 µg/mL (≈ 0.0322 µM) | 0.8 µg/mL (≈ 1.98 µM) | 6 mg/kg | 1 mg/kg |  |  | 130 µg/mL (≈ 322 µM)
9 | CN[C@@H](C)[C@@H]1CCN(c2nc3c(cc2F)c(=O)c(C(=O)O)cn3C2CC2)C1 [Example 21, 3R,1S-1-cyclopropyl-6-fluoro-7-[3-(1-N-methylaminoethyl)-1-pyrrolidinyl]-1,4-dihydro-4-oxo-1,8-naphthyridine-3-carboxylic acid] | 0.1 µg/mL (≈ 0.267 µM) | 0.2 µg/mL (≈ 0.534 µM) | 0.013 µg/mL (≈ 0.0347 µM) | 1.6 µg/mL (≈ 4.27 µM) | 0.05 µg/mL (≈ 0.134 µM) | 0.05 µg/mL (≈ 0.134 µM) | 0.1 µg/mL (≈ 0.267 µM) | 0.025 µg/mL (≈ 0.0668 µM) | 0.0013 µg/mL (≈ 0.00347 µM) | 0.4 µg/mL (≈ 1.07 µM) | 2 mg/kg | 2 mg/kg | 1 mg/kg | 0.5 mg/kg | 130 µg/mL (≈ 347 µM)
